In US20240336658A1, “CYCLIC PEPTIDE AND PREPARATION METHOD AND USE THEREOF” (HANGZHOU HUIBO SCIENCE AND TECHNOLOGY CO., LTD, priority 2021, published 2024):

System: full-thickness skin defect wound surfaces
Assay: Effects of cyclic peptide Hst1 on wound repair in mice (Example 10): healing rate, HE/Masson histology, CD31/VEGF immunohistochemistry
Type: in vivo, C57 BL/6 mice
Description: This example adopted the propargylglycine-Hst1 cyclic peptide (Click-Histatin1) provided in Example 1, a cyclized Hst1 (Sortase A-cyclic histatin1) prepared by the Sortase A enzymatic method provided in Example 4, and a linear peptide Hst1 (Histatin1) to conduct animal experiments to observe the effect of the propargylglycine-Hst1 on the healing rates of the wound surfaces of mice. The concentration of the linear peptide Hst1 was 10 μM, the concentration of the propargylglycine-Hst1 cyclic peptide was 0.1 μM, and the concentration of the cyclized Hst1 prepared by the Sortase A enzymatic method was each 0.1 μM. 12 healthy male special pathogen-free grade C57 BL/6 mice (purchased from Guangdong Experimental Animal Center) of 6-8 weeks old and weighing 22-28 g. They were intraperitoneally injected with 5 ml/kg of 1% pentobarbital sodium for anesthesia. After the mice had no corneal reflex, the hair on their backs was carefully removed and disinfected with alcohol. […] full-thickness skin defect wound surfaces were prepared on the back of each mouse by using a circular skin punch. The 12 mice were divided into a Control (blank) group with 3 mice, a 10 μM linear peptide Hst1 (Histatin1) group with 3 mice, a 0.1 μM propynylglycine-Hst1 cyclic peptide (Click-Histatin1) group with 3 mice, and a 0.1 μM cyclized Hst1 prepared by a Sortase A enzymatic method (Sortase A-cyclic histatin1) group with 3 mice, according to a random number table method. Each wound surface was added with 0.5 ml of four drugs respectively, and administration was conducted every day until the wound surfaces of the experimental groups healed. Photographs were taken on days 0, 3, 5, 7, and 10 after surgery, and wound tissues were sampled on day 10 for subsequent pathological staining. On days 0, 3, 5, 7, and 10 after injury, the general condition of wound healing of the mice was observed and photographed with a digital camera (see FIG. 4), and the wound healing rate was calculated (see FIG. 5). Wound healing rate=(wound area immediately after injury−unhealed wound area at each time point)[…]wound area immediately after injury×100%. The wound specimens were fixed in 4% paraformaldehyde for 48 hours, rinsed with tap water for 10 minutes, dehydrated with graded ethanol, permeabilized with xylene, and embedded in paraffin to prepare 4 μm thick sections. Some sections were taken for HE staining and Masson staining, and observed for the thickness of the granulation tissue, the length of the dermal gap, and the newly grown collagen of the wound surface under an inverted fluorescence microscope at 40×, 100×, 200×, and 400× respectively (see FIGS. 6 and 7). 5 sections were taken from each mouse, and 5 fields of view were selected for each section. Data analysis was performed using the software Image-pro Plus. […] It was added with a rabbit anti-mouse CD31 primary antibody (with a dilution ratio of 1:300) and a mouse anti-VEGF (with a dilution ratio of 1:100), incubated overnight at 4° C., and washed with PBS. […] It was subjected to DAB development, hematoxylin counterstaining. gradient ethanol dehydration, xylene permeabilization, and resin blocking. 5 sections were taken from each mouse, and 5 fields of view were selected for each section. The sections were observed under a 400× inverted fluorescence microscope, and analyzed for the number of CD31-positive blood vessels (see FIG. 8) and VEGF expression amounts (see FIG. 9, shown in brown) by using Image-pro Plus software. The measurement data were expressed by M±SD, and the data were analyzed by one-way analysis of variance (ANOVA) and an independent samples T-test with SPSS 20.0 software to detect whether the differences among the groups were statistically significant, and a Bonferroni test was used for pairwise comparison. *p<0.05. **p<0.01. ***p<0.001 meant the difference was statistically significant, and p>0.05 was not statistically significant.

[1] = day 10, immunohistochemistry, 0.1 μM Click-Histatin1, 10 μM Histatin1

Substance: Linear Hst1: linear peptide Hst1 (Histatin1), amino acid sequence SEQ ID NO.1
- healing rate of the wound surface (day 7, 10 μM Histatin1 vs 0.1 μM Click-Histatin1): no significant difference
- dermal gap length at both ends of the wound surface (day 10, HE staining, 0.1 μM Click-Histatin1, 0.1 μM Sortase A-cyclic histatin1, 10 μM Histatin1): longest dermal gap length
- expression amount of collagen at the wound surfaces (day 10, Masson staining, 0.1 μM Click-Histatin1, 0.1 μM Sortase A-cyclic histatin1, 10 μM Histatin1): significantly higher than that of the Control group
- VEGF expression amount [1]: higher than that in the Control group
- number of CD31-positive blood vessels under each field of view [1]: significantly higher than that in the Control group
